EC50 data for 25 compounds are collected here from US8399681B2, “Substituted aminothiazolone indazoles as estrogen related receptor-alpha modulators” (Janssen Pharmaceutica NV, priority 2009, dated 2013).

Molecules are shown by their SMILES.

This experiment has as its target T1, ERR1 (also known as ERR-α or ERR-1) (Homo sapiens, UniProt P11474).
T1 sequence (P11474 193-421 limits assumed): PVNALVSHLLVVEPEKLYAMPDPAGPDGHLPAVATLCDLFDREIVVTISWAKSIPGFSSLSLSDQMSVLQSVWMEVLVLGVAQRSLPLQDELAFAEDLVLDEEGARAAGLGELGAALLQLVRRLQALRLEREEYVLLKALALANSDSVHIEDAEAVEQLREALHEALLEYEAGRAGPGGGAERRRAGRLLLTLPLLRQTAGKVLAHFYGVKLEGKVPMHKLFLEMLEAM
Put plainly: TR-FRET assay (disruption of co-activator peptide binding). Conditions: 6His-tagged ERR1 LBD, GST-hSRC2 co-activator polypeptide; average of 3 independent experiments. It is filed as biochemical. Here is the method: Time-Resolved Fluorescence Resonance Energy Transfer (TR-FRET) experiments were performed to examine the functional response of ERR1 (also known as ERR-α or ERR-1) ligands. The TR-FRET assay described herein relied on the conformation of ERR1 for binding to a co-activator peptide: when a test compound binds to ERR1 and alters its conformation, it can disrupt the binding of the co-activator peptide. The components of this homogeneous secondary assay included: the ^6His-tagged-ERR1LBD, a GST-labeled-hSRC2 co-activator polypeptide and a fluorescent donor/acceptor pair from CIS bio international htrf/bioassays (Bedford, Mass.) using both an α-GST Europium Cryptate (Eu) label and an α^6His-XL665 (allophycocyanin) fluorophore.
For TR-FRET measurements, the reaction was buffered in 25 mM Tris pH 8, 2.5 mM Hepes, 20 mM KCl, 1 mM DTT, and 0.05 mg/mL BSA (-lipids). The final concentrations of reagents were 6 nM of ERR1LBD, 6 nM GST-SRC-2 peptide, 30 nM Eu cryptate, and 7.5 nM XL665. Reactions were allowed to reach equilibrium at 25° C. for 4-18 hours before collecting data on the Analyst from LJL Biosystems (Molecular Devices Sunnyvale, Calif.). As a time-resolved method, the samples were excited at […] and emission was collected for 1 ms at both 615 and 665 nm with delays of 400 and 75 μs, respectively. Dose response curves were fitted using a hyperbolic equation and the data reported is the average of 3 independent experiments.

As for `COCCOc1ccc(Cn2ncc3cc(/C=C4\SC(N5CCN(C)CC5)=NC4=O)ccc32)c(C(F)(F)F)c1` [Compound 24, 5-{1-[4-(2-Methoxy-ethoxy)-2-trifluoromethyl-benzyl]-1H-indazol-5-ylmethylene}-2-(4-methyl-piperazin-1-yl)-thiazol-4-one], the EC50 turned out to be 520 nM. As for `CN1CCN(C2=NC(=O)/C(=C/c3ccc4c(cnn4Cc4ccc(Cl)cc4Cl)c3)S2)CC1` [Example 25, 5-[1-(2,4-Dichloro-benzyl)-1H-indazol-5-ylmethylene]-2-(4-methyl-piperazin-1-yl)-thiazol-4-one], the figure is 68 nM. `CN1CCN(C2=NC(=O)/C(=C/c3ccc4c(cnn4Cc4ccc(Br)cc4C(F)(F)F)c3)S2)CC1` [Example 26, 5-[1-(4-Bromo-2-trifluoromethyl-benzyl)-1H-indazol-5-ylmethylene]-2-(4-methyl-piperazin-1-yl)-thiazol-4-one] registered an EC50 of 4.8 nM. This EC50 is about 14-fold lower than that of the compound before. Then `CN1CCN(C2=NC(=O)/C(=C/c3ccc4c(cnn4Cc4ccc(C5CC5)cc4C(F)(F)F)c3)S2)CC1` [Example 27, 5-[1-(4-Cyclopropyl-2-trifluoromethyl-benzyl)-1H-indazol-5-ylmethylene]-2-(4-methyl-piperazin-1-yl)-thiazol-4-one], with 11 nM; and `CN1CCN(C2=NC(=O)/C(=C/c3ccc4c(cnn4Cc4ccc(C(F)(F)F)cc4Br)c3)S2)CC1` [Example 28, 5-[1-(2-Bromo-4-trifluoromethyl-benzyl)-1H-indazol-5-ylmethylene]-2-(4-methyl-piperazin-1-yl)-thiazol-4-one], with 59 nM; and `CN1CCN(C2=NC(=O)/C(=C/c3ccc4c(cnn4Cc4ccc(C(F)(F)F)cc4C4CC4)c3)S2)CC1` [Example 29, 5-[1-(2-Cyclopropyl-4-trifluoromethyl-benzyl)-1H-indazol-5-ylmethylene]-2-(4-methyl-piperazin-1-yl)-thiazol-4-one], with 38 nM.

Regarding `C=C(C)c1ccc(Cn2ncc3cc(/C=C4\SC(N5CCN(C)CC5)=NC4=O)ccc32)c(C(F)(F)F)c1` [Example 30, 5-[1-(4-Isopropenyl-2-trifluoromethyl-benzyl)-1H-indazol-5-ylmethylene]-2-(4-methyl-piperazin-1-yl)-thiazol-4-one], the half-maximal effective concentration (EC50) was determined as 23 nM. This EC50 lies about 1.7-fold lower than the previous one.

`O=C1N=C(N2CCN(CCO)CC2)S/C1=C\c1ccc2c(cnn2Cc2ccc(C3CC3)cc2C(F)(F)F)c1` [Example 31, 5-[1-(4-Cyclopropyl-2-trifluoromethyl-benzyl)-1H-indazol-5-ylmethylene]-2-[4-(2-hydroxy-ethyl)-piperazin-1-yl]-thiazol-4-one] had an EC50 of 4.6 nM.

Regarding `COc1ccc(Cn2ncc3cc(/C=C4\SC(N5C[C@@H](O)[C@H](O)C5)=NC4=O)ccc32)c(C(F)(F)F)c1` [Example 32, 2-(3R,4R-Dihydroxy-pyrrolidin-1-yl)-5-[1-(4-methoxy-2-trifluoromethyl-benzyl)-1H-indazol-5-ylmethylene]-thiazol-4-one], a half-maximal effect (EC50) was put at 10 nM. Then `COc1ccc(Cn2ncc3cc(/C=C4\SC(N5CC(C(=O)O)C5)=NC4=O)ccc32)c(C(F)(F)F)c1` [Example 33, 1-{5-[1-(4-M ethoxy-2-trifluoromethyl-benzyl)-1H-indazol-5-ylmethylene]-4-oxo-4,5-dihydro-thiazol-2-yl}-azetidine-3-carboxylic acid], with 4.4 nM; and `COc1ccc(Cn2ncc3cc(/C=C4\SC(N5CCNCC5)=NC4=O)ccc32)c(C(F)(F)F)c1` [Example 34, 5-[1-(4-Methoxy-2-trifluoromethyl-benzyl)-1H-indazol-5-ylmethylene]-2-piperazin-1-yl-thiazol-4-one], with 7.5 nM. As to `O=C1N=C(N2CC(C(=O)O)C2)S/C1=C\c1ccc2c(cnn2Cc2ccc(Br)cc2C(F)(F)F)c1` [Example 36, 1-{5-[1-(4-Bromo-2-trifluoromethyl-benzyl)-1H-indazol-5-ylmethylene]-4-oxo-4,5-dihydro-thiazol-2-yl}-azetidine-3-carboxylic acid], the concentration for a half-maximal effect (EC50) turned out to be 5.4 nM. Then `O=C1N=C(N2CCC[C@H](C(=O)O)C2)S/C1=C\c1ccc2c(cnn2Cc2ccc(C(F)(F)F)cc2C(F)(F)F)c1` [Example 37, 1-{5-[1-(2,4-Bis-trifluoromethyl-benzyl)-1H-indazol-5-ylmethylene]-4-oxo-4,5-dihydro-thiazol-2-yl}-piperidine-3-(S)-carboxylic acid], with 5.3 nM; and `O=C1N=C(N2CCC[C@@H](C(=O)O)C2)S/C1=C\c1ccc2c(cnn2Cc2ccc(C(F)(F)F)cc2C(F)(F)F)c1` [Example 38, 1-{5-[1-(2,4-Bis-trifluoromethyl-benzyl)-1H-indazol-5-ylmethylene]-4-oxo-4,5-dihydro-thiazol-2-yl}-piperidine-3-(R)-carboxylic acid], with 9 nM; and `COc1ccc(Cn2ncc3cc(/C=C4\SC(N5CCC(C(=O)O)CC5)=NC4=O)ccc32)c(C(F)(F)F)c1` [Example 41, 1-{5-[1-(4-M ethoxy-2-trifluoromethyl-benzyl)-1H-indazol-5-ylmethylene]-4-oxo-4,5-dihydro-thiazol-2-yl}-piperidine-4-carboxylic acid], with 15 nM. Then `CN1CCCN(C2=NC(=O)/C(=C/c3ccc4c(cnn4Cc4ccc(C(F)(F)F)cc4C(F)(F)F)c3)S2)CC1` [Example 42, 5-[1-(2,4-Bis-trifluoromethyl-benzyl)-1H-indazol-5-ylmethylene]-2-(4-methyl-[1,4]diazepan-1-yl)-thiazol-4-one], with 4.2 nM. Then `O=C1N=C(N2CCC[C@@H]2C(=O)O)S/C1=C\c1ccc2c(cnn2Cc2ccc(C(F)(F)F)cc2C(F)(F)F)c1` [Example 43, 1-{5-[1-(2,4-Bis-trifluoromethyl-benzyl)-1H-indazol-5-ylmethylene]-4-oxo-4,5-dihydro-thiazol-2-yl}-pyrrolidine-2-(R)-carboxylic acid], with 11 nM; and `O=C1N=C(N2CCC[C@H]2C(=O)O)S/C1=C\c1ccc2c(cnn2Cc2ccc(Cl)cc2C(F)(F)F)c1` [Example 44, 1-{5-[1-(4-Chloro-2-trifluoromethyl-benzyl)-1H-indazol-5-ylmethylene]-4-oxo-4,5-dihydro-thiazol-2-yl}-pyrrolidine-2-(S)-carboxylic acid], with 3.2 nM; and `COc1ccc(Cn2ncc3cc(/C=C4\SC(N5CCC[C@@H]5C(=O)O)=NC4=O)ccc32)c(C(F)(F)F)c1` [Example 45, 1-{5-[1-(4-M ethoxy-2-trifluoromethyl-benzyl)-1H-indazol-5-ylmethylene]-4-oxo-4,5-dihydro-thiazol-2-yl}-pyrrolidine-2-(R)-carboxylic acid], with 34 nM. `O=C1N=C(N2CCC[C@@H]2C(=O)O)S/C1=C\c1ccc2c(cnn2Cc2ccc(Cl)cc2C(F)(F)F)c1` [Example 46, 1-{5-[1-(4-Chloro-2-trifluoromethyl-benzyl)-1H-indazol-5-ylmethylene]-4-oxo-4,5-dihydro-thiazol-2-yl}-pyrrolidine-2-(R)-carboxylic acid] showed an EC50 of 27 nM. `O=C1N=C(N2CCNC[C@@H]2C(=O)O)S/C1=C\c1ccc2c(cnn2Cc2ccc(C(F)(F)F)cc2C(F)(F)F)c1` [Example 47, 1-{5-[1-(2,4-Bis-trifluoromethyl-benzyl)-1H-indazol-5-ylmethylene]-4-oxo-4,5-dihydro-thiazol-2-yl}piperazine-2-(R)-carboxylic acid]: the concentration for a half-maximal effect (EC50) was 8.2 nM. As for `O=C1N=C(N2CCC[C@H](C(=O)O)C2)S/C1=C\c1ccc2c(cnn2Cc2ccc(Cl)cc2C(F)(F)F)c1` [Example 48, 1-{5-[1-(4-Chloro-2-trifluoromethyl-benzyl)-1H-indazol-5-ylmethylene]-4-oxo-4,5-dihydro-thiazol-2-yl}piperidine-3-(S)-carboxylic acid], the figure is 14.3 nM.

`O=C1N=C(N2CC[C@H]2C(=O)O)S/C1=C\c1ccc2c(cnn2Cc2ccc(C(F)(F)F)cc2C(F)(F)F)c1` [Example 49, 1-{5-[1-(2,4-Bis-trifluoromethyl-benzyl)-1H-indazol-5-ylmethylene]-4-oxo-4,5-dihydro-thiazol-2-yl}-azetidine-2-(S)-carboxylic acid] displayed a 50% effective concentration (EC50) of 6 nM. As for `COc1ccc(Cn2ncc3cc(/C=C4\SC(N5CC[C@H]5C(=O)O)=NC4=O)ccc32)c(C(F)(F)F)c1` [Example 50, 1-{5-[1-(4-Methoxy-2-trifluoromethyl-benzyl)-1H-indazol-5-ylmethylene]-4-oxo-4,5-dihydro-thiazol-2-yl}-azetidine-2-(S)-carboxylic acid], the figure is 7.8 nM. `COc1ccc(Cn2ncc3cc(/C=C4\SC(N5CCC[C@H](N)C5)=NC4=O)ccc32)c(C(F)(F)F)c1` [Example 51, 2-(3-(S)-Amino-piperidin-1-yl)-5-[1-(4-methoxy-2-trifluoromethyl-benzyl)-1H-indazol-5-ylmethylene]-thiazol-4-one] displayed an EC50 of 9 nM.
